Data from patent publication US20250136607A1 (REGOR PHARMACEUTICALS, INC., priority 2021, published 2025).
Read-outs that look alike come from different tables or passages of the source.

Test system: Citrullinated Histone H3 in 4T1 (TNBC cell line) cells
Experiment: 4T1 CECN ELISA assay
Format: cell-based
Conditions: 4T1 cells, stimulation with 50 μM A23187 for 4 h, read-out: Average IC50 Abs
Experimental: Cell culture: 4T1 cells were grown in DMEM+10% FBS+1% HEPES+1% PS. Cells plating: • 1) 4T1 cells were collected and the plate was centrifuged at 1000 rpm for 5 min. • 2) The 4T1 cells were diluted to 0.5×10^6 cells/mL and plated into a 96-well plate with 100 μL/well. The plate was then incubated in the incubator (5% CO2, 37° C.) for overnight to allow cells to adhere, exchanged fresh culture medium with 100 μL/well. Compound treatment: • 1) Preparation of compound serial dilution (source plate 500×, final DMSO concentration: 0.2%): briefly, compounds were dissolved in 100% DMSO to a concentration of 20 mM (the stock solution) and a 3-fold serial dilution with 8-point doses was performed. • 2) 10× compound solution was pipetted up and down; and 10 μL/well of compounds were added into each well and incubated for 30 min. Stimulation with 50 μM A23187: • 1) A solution of A23187 (500 μM) in complete DMDM (DMDM+10% FBS+1% PS+1 mM CaCl2) containing 150 U/mL S7 Nuclease was prepared. The obtained solution was added 10 μL/well into each well and incubated for 4 h in the incubator (5% CO2, 37° C.). • 2) The 4T1 cells treated with 10 μL/well complete DMDM without A23187 worked as negative control. Sample preparation: • 1) EDTA (0.5 M, 2 μL/well) were added to all the wells to stop the reaction. • 2) The plate was centrifuged at 1000 rpm for 5 min to collect supernatant. • 3) The supernatant was then diluted at least 1:2 before adding to the ELISA plate for citrullinated H3 analysis.
The standard was reconstituted with 2 mL of Assay buffer to 500 ng/mL. The reconstituted standard was relatively unstable at 4° C. and should be used within 3 hr after reconstitution.
• 1) 100 μL of the standards or diluted samples were added to the wells on the ELISA plate. • 2) The plate was covered with Cover Sheet and incubated for 2 h at RT on an orbital shaker.
On the day of the assay, the reagent was thawed at rt. For one plate, 1.2 mL of HRP Conjugate were diluted into 10.8 mL of assay buffer. A diluted HRP Conjugate was prepared shortly before use.
• 1) The wells were empties and rinsed four times with 1× wash buffer with 300 μL/well (Low speed). The plate was inverted between wash steps to empty the plate. After the last wash, the inverted plate was gently tapped on absorbent paper to remove the residual wash buffer. • 2) 100 μL of the HRP Conjugate working solution were added to each well of the plate. • 3) The plate was covered with cover sheet and incubated for 1 h at RT on an orbital shaker.
• 1) The wells were empties and rinsed four times with 1× wash buffer with 300 μL/well (low speed). The plate was inverted between wash steps to empty the plate. […] 100 μL of HRP STOP solution were added to each well of the plate.
• 1) Wipe the bottom of the plate with a clean tissue to remove fingerprints, dirt, etc. • 2) Read the plate at a wavelength of 450 nm.
The percent (%) inhibition at each concentration of compound was calculated based on and relative to the signal in the HPE and ZPE wells contained within each assay plate. The HPE wells worked as […], and the ZPE wells didn't contain any compound but rather DMSO (final concentration=[…]) as […]. The concentrations and % inhibition values for tested compounds were plotted and the concentration of compound required for 50% inhibition (IC50) was determined with a Four-parameter logistic dose response equation. The endpoint value (IC50) for the reference peptide/compound was evaluated in each experiment as a quality control measure. If the endpoint value is within 3-fold of the expected value then the experiment is deemed acceptable. The results of representative compounds of the present invention are provided in Table 3 below. ≤0.1 μM=“++++”; >0.1 and ≤0.5 μM=“+++”; >0.5 and ≤5.0 μM=“++”; >5.0 μM=“+”. “−”=not available.

Row | Compound | IC50 (Mus musculus, 4T1, 4 h) | IC50 | further results
1 | CCC1CN(CCCO)c2cccc3cc(-c4nc5cc(C(=O)N6C[C@H](N)C[C@@H](F)C6)cc(F)c5n4C)n1c23 (stereo partly drawn) [Example 75, ((3R,5R)-3-amino-5-fluoropiperidin-1-yl)(2-(3-ethyl-1-(3-hydroxypropyl)-2,3-dihydro-1H-pyrrolo[1,2,3-de]quinoxalin-5-yl)-7-fluoro-1-methyl-1H-benzo[d]imidazol-5-yl)methanone] | 100 to 500 nM | – | –
2 | C#CCn1c(-c2cc3cccc4c3n2C(CC)CN4CCCO)nc2cc(C(=O)N3C[C@H](N)C[C@@H](F)C3)cc(OC)c21 (stereo partly drawn) [Example 95, ((3R,5R)-3-amino-5-fluoropiperidin-1-yl)(2-(3-ethyl-1-(3-hydroxypropyl)-2,3-dihydro-1H-pyrrolo[1,2,3-de]quinoxalin-5-yl)-7-methoxy-1-(prop-2-yn-1-yl)-1H-benzo[d]imidazol-5-yl)methanone] | ≤ 100 nM | – | –
3 | CCC1CN(CCCO)c2cccc3cc(-c4nc5cc(C(=O)N6C[C@H]7CC[C@@H]6[C@@H]7N)cc(F)c5n4CC)n1c23 (stereo partly drawn) [Example 96, ((1R,4R,7R)-7-amino-2-azabicyclo[2.2.1]heptan-2-yl)(1-ethyl-2-(3-ethyl-1-(3-hydroxypropyl)-2,3-dihydro-1H-pyrrolo[1,2,3-de]quinoxalin-5-yl)-7-fluoro-1H-benzo[d]imidazol-5-yl)methanone] | – | – | IC50 (Mus musculus): 100 to 500 nM

Now from value to molecule, other results behind:

Row | IC50 (Mus musculus, 4T1, 4 h) | IC50 | Compound | further results
4 | ≤ 100 nM | – | CCC1CN(CCCO)c2cccc3cc(-c4nc5cc(C(=O)N6C[C@H](N)C[C@@H](F)C6)cc(OC)c5n4C)n1c23 (single isomer, unassigned) [Example 82] | –
5 | – | > 5000 nM | CCC1CN(CCCO)c2cccc3cc(-c4nc5cc(C(=O)N6C[C@H]7CC[C@@H]6[C@@H]7N)cc(OC)c5n4C)n1c23 (single isomer, unassigned) [Example 86] | –
6 | – | ≤ 100 nM | CCC1CN(CCCO)c2cccc3cc(-c4nc5cc(C(=O)N6C[C@H]7CC[C@@H]6[C@@H]7N)cc(OC)c5n4C)n1c23 (single isomer, unassigned) [Example 87] | –
